# Reference: US20190282580A1, “PRO-INFLAMMATORY ROLE FOR ADENOSINE UPTAKE AND METABOLISM” (priority 2016, published 2019)
# “Also recorded” adds a separate entry of the source.
# Key:
# [1] = system: IRF3; assay: IRF3 nuclear translocation (in situ immunofluorescence) in primary human endothelial cells after dsDNA or hCMV; type: cell-based; conditions: primary human endothelial cells (HUVEC) supplemented with the substance, then DNA treatment or hCMV infection
# From the text: (§1) Extracellular Ado supplementation enhances anti-viral innate responses: To date, all loss-of function mutations in ADA2 that cause PAN/DADA2 vasculitis either reduce protein levels of ADA2 or dramatically impair enzymatic activity of ADA2, such that loss of enzymatic activity in serum is the defining characteristic of the disease. Loss of ADA2 activity in serum alters catabolism of Ado/dAdo released into circulation from cells and tissues, or produced by dephosphorylation of extracellular ATP/dATP. Ado and dAdo are profoundly immuno-modulatory nucleosides, exerting many effects on cells. Vascular endothelial cells metabolize Ado/dAdo in blood, yet excessive or dysregulated Ado/dAdo signaling has not been examined in endothelium. To examine the effects of Ado on vascular endothelial cells, HUVEC were supplemented with extracellular Ado 24 h prior to treatment with DNA or infection with hCMV.
# Cells: Primary human cells were obtained from Lonza as single donor aliquots. Wherever possible, both male and female donors were analyzed. Human umbilical vascular endothelial cells (HUVEC) and Human aortic endothelial cells (HAEC) were maintained in EGM-2 Bulletkit growth media (Lonza) supplemented with 2% HI-FBS. […]
# IRF3 immunostaining: Cells were fixed with 4% PFA for 20 min, washed 3 times with 1×PBS, permeabilized with 0.2% Triton X-100 for 10 min, and blocked with 10% FBS for 30 min Cells were incubated with IRF-3 primary antibody (clone FL-425, Santa Cruz) at 1:200 dilution for 30 min and washed 3 times with 1×PBS. […] Images were acquired at 10× magnification on ImageXpress Micro (Molecular Devices), and images were analyzed using the enhanced translocation module of MetaXpress (Molecular Devices). Individual cells were scored as positive for nuclear translocation if >70% of IRF3 fluorescence was spatially correlated with DAPI fluorescence. […]
# [2] = system: IFNβ; assay: IFNβ induction (TaqMan qRT-PCR) in primary human endothelial cells after dsDNA or hCMV; type: cell-based; conditions: for IFNβ induction: HUVEC supplemented with the substance, then DNA treatment or hCMV infection
# From the text: as §1
# Cells: Primary human cells were obtained from Lonza as single donor aliquots. Wherever possible, both male and female donors were analyzed. Human umbilical vascular endothelial cells (HUVEC) and Human aortic endothelial cells (HAEC) were maintained in EGM-2 Bulletkit growth media (Lonza) supplemented with 2% HI-FBS. Human dermal microvascular endothelial cells (HDMVEC), human brain microvascular endothelial cells (HBMVEC), and human kidney microvascular endothelial cells (HKMVEC) were maintained in EBM-2MV Bulletkit growth media (Lonza) supplemented with 5% HI-FBS. Normal human bronchial […] cells (NHBE) were maintained in BEGM Bulletkit growth media (Lonza). U937 were maintained in RPMI supplemented with 5% HI-FBS. For activation of cell-intrinsic innate immune responses through the STING-IFN-I pathway, all cells were stimulated for 3 h with poly dA:dT or VACV70 dsDNA (200-1000 ng/mL) using LyoVec as a transfection reagent (Invivogen), or infected for 3 h with hCMV MOLD at MOI=1.
# Real-time PCR: Total RNA was extracted using the Quick-RNA MiniPrep Plus kit (Zymo Research). Total RNA (200-1000 ng) was used to synthesize complementary DNA using the qScript cDNA synthesis kit (Quanta). Samples were diluted 10-fold and gene expression was analyzed by real-time quantitative PCR on a CFX96 Touch Detection System (Bio-Rad) using FastStart SYBR Green Master Mix (Roche) or TaqMan Universal PCR Master Mix (ThermoFisher Scientific). […]
# [3] = system: vascular endothelium; conditions: references 22-24; cited from earlier work
# [4] = system: pro-inflammatory and anti-viral genes; assay: Pro-inflammatory cytokine and innate immune gene expression in endothelial cells (qRT-PCR, RNAseq); type: cell-based, human; conditions: for pro-inflammatory cytokine production: after viral infection, extracellular supplementation; for expression of IL-6 and TNF cytokines: endothelial cells after supplementation
# Protocol: (§2) Real-time PCR: Total RNA was extracted using the Quick-RNA MiniPrep Plus kit (Zymo Research). Total RNA (200-1000 ng) was used to synthesize complementary DNA using the qScript cDNA synthesis kit (Quanta). Samples were diluted 10-fold and gene expression was analyzed by real-time quantitative PCR on a CFX96 Touch Detection System (Bio-Rad) using FastStart SYBR Green Master Mix (Roche) or TaqMan Universal PCR Master Mix (ThermoFisher Scientific).
# RNAseq: Total RNA was extracted from 10^7 cultured cells using the Quick-RNA MiniPrep Plus kit (Zymo Research). RNA quality was assessed using an Agilent Tapestation, such that all samples should produce RIN^e scores above 9.0. For each sample, 500-1000 ng of total RNA was then prepared into an mRNA library using the Truseq Stranded mRNA Library Prep Kit (Illumina). Resulting libraries were then pooled at equimolar concentrations using Quant-iT PicoGreen dsDNA Assay Kit (Life Technologies) and were deep sequenced on an Illumina 2500 in Rapid Run Mode, producing between 10M and 90M single-end reads with lengths of 50 nucleotides per sample.
# The single-end reads that passed Illumina filters were filtered for reads aligning to tRNA, rRNA, adapter sequences, and spike-in controls. The reads were then aligned to UCSC hg19 reference genome using TopHat (v 1.4.1). DUST scores were calculated with PRINSEQ Lite (v 0.20.3) and low-complexity reads (DUST>4) were removed from the BAM files. The alignment results were parsed via the SAMtools to generate SAM files. Read counts to each genomic feature were obtained with the htseq-count program (v 0.6.0) using the “union” option. After removing absent features (zero counts in all samples), the raw counts were then imported to R/Bioconductor package DESeq2 [5] to identify differentially expressed genes among samples. DESeq2 normalizes counts by dividing each column of the count table (samples) by the size factor of this column. The size factor is calculated by dividing the samples by geometric means of the genes. This brings the count values to a common scale suitable for comparison. P-values for differential expression are calculated using binomial test for differences between the base means of two conditions. These p-values are then adjusted for multiple test correction using Benjamin Hochberg algorithm to control the false discovery rate. […] Cluster analyses including principal component analysis (PCA) and hierarchical clustering were performed using standard algorithms and metrics. Hierarchical clustering was performed using complete linkage with Euclidean metric.
# [5] = system: STING; assay: STING mRNA expression (TaqMan qRT-PCR) in HUVEC; type: cell-based, human; conditions: supplemented cells, resting and stimulated
# Protocol: as §2
# [6] = system: IFNβ; assay: IFNβ induction in monocytes; type: cell-based, human
# Protocol: as §2
# Lentivirus production for shRNA and CRISPR: For shRNA experiments, sequences were selected from the Sigma mission 2.0 library. For CRISPR experiments, sgRNA sequences selected using the CHOPCHOP algorithm and were cloned into the lentiCRISPrv2 vector […]. Plasmids were transformed and amplified in Dh5α competent E. Coli, and purified using the EndoFree Plasmid Maxi kit (QIAGEN). For lentivirus preparation, 293T cells seeded in 6-well plates and transfected with pLKO.1 or lentiCRIPRv2 plasmids and MISSION Lentiviral Packaging Mix (Sigma), using JetPrime transfection reagent (Polyplus). After 24 h, media was changed to full growth media supplemented with 30% FBS. After 48 h, lentiviral supernatants were collected and HUVEC or U937 cells were spin-infected by centrifugation for 1 h at 37 C at 2000 rpm. Cells were selected in 3 ug/mL puromycin media for 2 weeks.
# [7] = system: IFNβ; assay: IFNβ induction (TaqMan qRT-PCR) in primary human endothelial cells after dsDNA or hCMV; type: cell-based; conditions: for hCMV induced IFNβ: pre-treatment, siControl and siADA2-treated endothelial cells (HUVEC, HBMVEC, HDMVEC)
SMILES,IRF3 activation / nuclear translocation [1],IFNβ induction [2],uptake of circulating nucleoside by the vascular endothelium [3],pro-inflammatory cytokine production [4],STING mRNA levels / expression [5],other results
"Nc1ncnc2c1ncn2[C@@H]1O[C@H](CO)[C@@H](O)[C@H]1O [Ado, adenosine]",significantly enhanced; also recorded: augmented; also recorded: enhances,significantly enhanced; also recorded: augmented; also recorded: enhances,within a few seconds,enhances,,IFNβ induction ([2]; listed as adenosine): enhances; expression of IL-6 and TNF cytokines [4]: enhanced expression; expression of IL-6 and TNF cytokines ([4]; listed as adenosine): enhances
"CCNC(=O)[C@H]1O[C@@H](n2cnc3c(N)ncnc32)[C@H](O)[C@@H]1O [NECA, 5′-N-ethylcarboxamidoadenosine]",did not enhance; also recorded: no effect; also recorded: does not significantly affect,did not enhance; also recorded: does not significantly affect,,,,
"Nc1ncnc2c1ncn2[C@H]1C[C@H](O)[C@@H](CO)O1 [dAdo, 2′-deoxyadenosine]",significantly enhances; also recorded: augmented,significantly enhances; also recorded: augmented,within a few seconds,enhances,up-regulated,IFNβ induction [6]: enhanced
"OC[C@H]1O[C@@H](n2cnc3c(O)ncnc32)C[C@@H]1O [dIno, deoxyinosine]",,,,,up-regulated,"IFNβ mRNA induction ([2]; prolonged supplementation of HUVEC, dsDNA treatment): specifically augmented"
OCCN(CCO)c1nc(N2CCCCC2)c2nc(N(CCO)CCO)nc(N3CCCCC3)c2n1 [dipyridamole],,,,,,"IFNβ levels ([7]; TREX1-depleted cells): dampened; dIno-augmented IFNβ ([7]; cells supplemented with dIno, sensitivity to DPM): sensitive; hCMV induced IFNβ [7]: significantly reduced; also recorded: dose-dependent decrease; hCMV induced IFNβ ([7]; listed as Dipyridamole): reduced; expression of pro-inflammatory and anti-viral genes ([4]; ADA2-depleted and dAdo-supplemented cells, whole-transcriptome RNAseq): broadly inhibited; cytokine production ([4]; ADA2/CECR1-depleted cells): reduces"
OC[C@H]1O[C@@H](n2cnc3c2NC=NC[C@H]3O)C[C@@H]1O [pentostatin],,,,,,"augmentation of IRF3 and IFNβ responses by extracellular Ado and dAdo ([7]; in the presence of pentostatin to inhibit ADA2, endothelial cells): enhanced"
